In patent publication US9359281B2, “Enantiomers of 2-hydroxy derivatives of fatty acids” (UNIVERSITAT DE LES ILLES BALEARS, priority 2011, dated 2016):

Columns and labels:
Body weight of SHR rats = assay type: in vivo; conditions: 600 mg/kg·day, 5 days, orally, 600 mg/kg
Method: C. Effect on body weight: SHR rats were treated with 2OHOA racemic (+/−) and its optic isomers [−]2OHOA and [+]2OHOA (600 mg/kg·day, 5 days, orally). […] Values of average±EEM body weight (abscises axis, n=6) are shown.
(§1) What is more, we studied the effect of the isomers above on arterial pressure, body weight, and the level of cholesterol, triglycerides and glycemia (glucose in plasma) in SHR rats SHR (FIGS. 8B, 8C and 8D and 8E). […] Similarly, during 1 and 5 days of treatment, rats treated with the racemic loosed 11 gram of weight (approximately a 3% of their body weight), whereas animals of the group treated with enantiomer [−]2OHOA loosed 21 grams and animals of the group treated with enantiomer [+]2OHOA only loosed 7 grams of weight. On the other hand, a higher effect of enantiomer [+]2OHOA in the reduction of triglyceride (TG) and total cholesterol (CHOt) levels was observed (FIG. 8D) At this respect, plasmatic basal levels of TG in SHR rats are of 108 mg/dl and were reduced to 56 mg/dl after 2 weeks treatment […]. On the other hand, treatment with enantiomer [+]2OHOA inducted a reduction of plasmatic TG levels to 47 mg/dl, whereas enantiomer [−]2OHOA only produced a modest reduction to 81 mg/dl. In parallel, levels of CHOt were reduced from 73 mg/dl to 43 mg/dl (racemic), 36 mg/dl (enantiomer [+]2OHOA) and 59 mg/dl (enantiomer [−]2OHOA), respectively.

U118 cells [1] = experiment: Levels of SM in cell membranes, U118; assay type: cell-based, human; design: SM levels in the cell membrane (activation of enzyme EC 2.7.8.27): dose or concentration left out as unconfirmed
HT29 cells = experiment: Cell growth inhibition, HT29; assay type: cell-based, human; design: key to Effect (anti-proliferation effect): +: inhibition of cell growth; −: absence of effect
Description: (§2) At this respect, concentrations which inhibit growth of tumour cells (IC50) are lower for the enantiomer S ([−]) in all studied tumour lines (Table 5). […] In all of the cases, the molecules employed were in the form of sodium salt.

MRC-5 cells = experiment: Cell growth inhibition, MRC-5; assay type: cell-based, human; design: key to Effect (anti-proliferation effect): +: inhibition of cell growth; −: absence of effect
Description: as §2

[2] = Toxicity and side effects (symptoms) in treated tumour-bearing mice; assay type: in vivo; conditions: 15 days
Description: (§3) This example recounts the study carried out on immuno-depressed mice infected with human glioma (SF767) cells and treated for 15 days (orally) with the indicated dose (Table 3).

MDA-MB-231 cells = experiment: Cell growth inhibition, MDA-MB-231; assay type: cell-based, human; design: key to Effect (anti-proliferation effect): +: inhibition of cell growth; −: absence of effect
Description: as §2

SH-SY5Y cells = experiment: Cell growth inhibition, SH-SY5Y; assay type: cell-based, human; design: key to Effect (anti-proliferation effect): +: inhibition of cell growth; −: absence of effect
Description: as §2

SF767 cells = experiment: Cell growth inhibition, SF767; assay type: cell-based, human; design: key to Effect (anti-proliferation effect): +: inhibition of cell growth; −: absence of effect
Description: as §2

[3] = Triglyceride and total cholesterol levels in SHR rats; assay type: in vivo; conditions: 600 mg/kg every 12 h, orally, 600 mg/kg
Method: D. Effects on cholesterol and triglyceride levels: SHR rats were treated with 2OHOA racemic (+/−) and its optic isomers [−]2OHOA and [+]2OHOA (600 mg/kg every 12 h, 15 days, orally). […] Values of average±EEM seric levels of lipids expressed as mg/dl (ordinate axis; n=6) are shown.
as §1

[4] = system: human glioma (SF767) cells; experiment: Volume of human glioma (SF767) tumours in immuno-depressed mice; assay type: in vivo; conditions: for Effect: variation in the size of the tumour compared with untreated animals: 15 days
Description: as §3

BXPC3 cells = experiment: Cell growth inhibition, BXPC3; assay type: cell-based, human; design: key to Effect (anti-proliferation effect): +: inhibition of cell growth; −: absence of effect
Description: as §2

A549 cells = experiment: Cell growth inhibition, A549; assay type: cell-based, human; design: key to Effect (anti-proliferation effect): +: inhibition of cell growth; −: absence of effect; conditions: for IC50: A549, sodium salt form
Description: as §2

IMR90 cells = experiment: Cell growth inhibition, IMR90; assay type: cell-based, human; design: key to Effect (anti-proliferation effect): +: inhibition of cell growth; −: absence of effect
Description: as §2

A375 cells = experiment: Cell growth inhibition, A375; assay type: cell-based, human; conditions: A375, sodium salt form
Description: as §2

U937 cells = experiment: Cell growth inhibition, U937; assay type: cell-based, human; design: key to Effect (anti-proliferation effect): +: inhibition of cell growth; −: absence of effect
Description: as §2

U118 cells [5] = experiment: Cell growth inhibition, U118; assay type: cell-based, human; design: key to Effect (anti-proliferation effect): +: inhibition of cell growth; −: absence of effect
Description: as §2

[6] = Plasmatic glucose levels in SHR rats; assay type: in vivo; conditions: 600 mg/kg, 12 h, 15 days, by mouth
Method: E. Effects on […] (plasmatic glucose levels): SHR rats were treated with vehicle (control), racemic 2OHOA and their optical isomers [−] 2OHOA and [+]2OHOA (600 mg/kg, 12 h, 15 days, by mouth). The racemic compound and the [−]
as §1

HepG2 cells = experiment: Cell growth inhibition, HepG2; assay type: cell-based, human; design: key to Effect (anti-proliferation effect): +: inhibition of cell growth; −: absence of effect
Description: as §2

PC3 cells = experiment: Cell growth inhibition, PC3; assay type: cell-based, human; design: key to Effect (anti-proliferation effect): +: inhibition of cell growth; −: absence of effect
Description: as §2

Compound: CCCCCCCC/C=C\CCCCCCC(O)C(=O)O (stereo not shown) [[−]2OHOA] [[−] HOOC—HOCH—(CH2)6—(CH═CH—CH2)1—(CH2)6—CH3]
- loss of body weight (Body weight of SHR rats): 21 gram
- % SM after treatment (U118 cells [1]; U118, 200 μM [−]2OHOA): 28%
- SM levels in the cell membrane (activation of enzyme EC 2.7.8.27) (U118 cells [1]; U118, 24 hours): even greater increases in SM levels
- Effect (anti-proliferation effect) (HT29 cells; HT29): +
- IC50 (HT29 cells; HT29, sodium salt form): 159 µM
- Effect (anti-proliferation effect) (MRC-5 cells; MRC-5): −
- IC50 (MRC-5 cells; MRC-5 non tumor fibroblast, sodium salt form): > 5000 µM
- Toxicity: symptoms registered ([2]; 50 mg/kg orally): no side effects and No
- Toxicity: symptoms registered ([2]; 75 mg/kg orally): No
- Toxicity: symptoms registered ([2]; 100 mg/kg orally): No
- Toxicity: symptoms registered ([2]; 150 mg/kg orally): No
- Toxicity: symptoms registered ([2]; 200 mg/kg orally): No
- Toxicity: Behaviour symptoms, percentage of animals ([2]; 400 mg/kg orally): Behaviour 16%
- Toxicity: Diarrhoea, percentage of animals ([2]; 400 mg/kg orally): Diarrhoea 16%
- Toxicity: Behaviour symptoms, percentage of animals ([2]; 600 mg/kg orally): Behaviour 50%
- Toxicity: Diarrhoea, percentage of animals ([2]; 600 mg/kg orally): Diarrhoea 32%
- Effect (anti-proliferation effect) (MDA-MB-231 cells; MDA-MB-231): +
- IC50 (MDA-MB-231 cells; MDA-MB-231, sodium salt form): 145 µM
- IC50 (SH-SY5Y cells; SH-SY5Y, sodium salt form): 64.4 µM
- Effect (anti-proliferation effect) (SH-SY5Y cells; SH-SYSY): +
- Effect (anti-proliferation effect) (SF767 cells; SF767): +
- IC50 (SF767 cells; SF767, sodium salt form): 102 µM
- plasmatic TG levels after treatment ([3]; 2 weeks, basal 108 mg/dl): 81 mg/dL
- CHOt levels after treatment ([3]; 15 days, basal 73 mg/dl): 59 mg/dL
- Effect: variation in the size of the tumour compared with untreated animals ([4]; 50 mg/kg orally): −35%
- Effect: variation in the size of the tumour compared with untreated animals ([4]; 75 mg/kg orally): −54%
- Effect: variation in the size of the tumour compared with untreated animals ([4]; 100 mg/kg orally): −65%
- Effect: variation in the size of the tumour compared with untreated animals ([4]; 150 mg/kg orally): −78%
- Effect: variation in the size of the tumour compared with untreated animals ([4]; 200 mg/kg orally): −89%
- decrease in the volume of the tumour ([4]; 200 mg/kg, 15 days orally): 89%
- Effect: variation in the size of the tumour compared with untreated animals ([4]; 400 mg/kg orally): −91%
- Effect: variation in the size of the tumour compared with untreated animals ([4]; 600 mg/kg orally): −86%
- Effect (anti-proliferation effect) (BXPC3 cells; BXPC3): +
- IC50 (BXPC3 cells; BXPC3, sodium salt form): 61.8 µM
- Effect (anti-proliferation effect) (A549 cells; A549): +
- IC50 (A549 cells): 52.6 µM
- IC50 (A549 cells; listed as [−]2OH18:1): 52.6 ± 9.5 µM
- Effect (anti-proliferation effect) (IMR90 cells; IMR90): −
- IC50 (IMR90 cells; IMR90 non tumor fibroblast, sodium salt form): > 5000 µM
- IC50 (A375 cells): 163 µM
- Effect (anti-proliferation effect) (U937 cells; U937): +
- IC50 (U937 cells; U937, sodium salt form): 136 µM
- Effect (anti-proliferation effect) (U118 cells [5]; U118): +
- IC50 (U118 cells [5]; U118, sodium salt form): 97.8 µM
- plasma glucose levels (glycemia) [6]: significant reductions
- Effect (anti-proliferation effect) (HepG2 cells; HepG2): +
- IC50 (HepG2 cells; HepG2, sodium salt form): 32.9 µM
- Effect (anti-proliferation effect) (PC3 cells; PC3): +
- IC50 (PC3 cells; PC3, sodium salt form): 87 µM
